Patent US7501417B2, “Aminocarbonyl-derivatives as novel inhibitors of histone deacetylase” (Janssen Pharmaceutica, N.V., priority 2002, dated 2009)
≈ marks a conversion by molar mass, not a printed value.

Experiments:
[1] = molecular target: HDAC (HeLa nuclear extracts); assay: In vitro assay for inhibition of histone deacetylase; format: biochemical; settings: [3H]acetylated histone H4 peptide substrate
Method: The in vitro assay for inhibition of histone deacetylase (see example C.1) measures the inhibition of HDAC enzymatic activity obtained with the compounds of formula (I).
HeLa nuclear extracts (supplier: Biomol) were incubated at 60 μg/ml with 2×10^−8 M of radiolabeled peptide substrate. As a substrate for measuring HDAC activity a synthetic peptide, i.e. the amino acids 14-21 of histone H4, was used. The substrate is biotinylated at the NH2-terminal part with a 6-aminohexanoic acid spacer, and is protected at the COOH-terminal part by an amide group and specifically [^3H]acetylated at lysine 16. The substrate, biotin-(6-aminohexanoic)Gly-Ala-([^3H]-acetyl-Lys-Arg -His-Arg-Lys-Val-NH2), was added in a buffer containing 25 mM Hepes, 1 M sucrose, 0.1 mg/ml BSA and 0.01% Triton X-100 at pH 7.4. After 30 min the deacetylation reaction was terminated by the addition of HCl and acetic acid. (final concentration 0.035 mM and 3.8 mM respectively). After stopping the reaction, the free ^3H-acetate was extracted with ethylacetate. After mixing and centrifugation, the radioactivity in an aliquot of the upper (organic) phase was counted in a β-counter.
For each experiment, controls (containing HeLa nuclear extract and DMSO without compound), a blank incubation (containing DMSO but no HeLa nuclear extract or compound) and samples (containing compound dissolved in DMSO and HeLa nuclear extract) were run in parallel. In first instance, compounds were tested at a concentration of 10^−5M. […] In each test the blank value was subtracted from both the control and the sample values. The control sample represented 100% of substrate deactylation. For each sample the radioactivity was expressed as a percentage of the mean value of the controls. […] Herein the effects of test compounds are expressed as pIC50 (the negative log value of the IC50-value).

[2] = tested on: A2780 ovarian carcinoma cells; assay: Determination of antiproliferative activity on A2780 cells (MTT); format: cell-based; settings: Homo sapiens, 96 h, four days of incubation, read-out: Cellular activity pIC50 (converted)
Method: Cellular activity of the compounds of formula (I) was determined on A2780 tumour cells using a colorimetric assay for cell toxicity or survival (Mosmann Tim, Journal of Immunological Methods 65: 55-63, 1983)(see example C.2).
All compounds tested were dissolved in DMSO and further dilutions were made in culture medium. Final DMSO concentrations never exceeded 0.1% (v/v) in cell proliferation assays. Controls contained A2780 cells and DMSO without compound and blanks contained DMSO but no cells. MTT was dissolved at 5 mg/ml in PBS. A glycine buffer comprised of 0.1 M glycine and 0.1 M NaCl buffered to pH 10.5 with NaOH (1 N) was prepared (all reagents were from Merck).
The human A2780 ovarian carcinoma cells (a kind gift from Dr. T. C. Hamilton [Fox Chase Cancer Centre, Pennsylvania, USA]) were cultured in RPMI 1640 medium supplemented with 2 mM L-glutamine, 50 μg/ml gentamicin and 10% fetal calf serum. Cells were routinely kept as monolayer cultures at 37° C. in a humidified 5% CO2 atmosphere. Cells were passaged once a week using a trypsin/EDTA solution at a split ratio of 1:40. All media and supplements were obtained from Life Technologies. Cells were free of mycoplasma contamination as determined using the Gen-Probe Mycoplasma Tissue Culture kit (supplier: BioMérieux).
Cells were seeded in NUNC™ 96-well culture plates (Supplier: Life Technologies) and allowed to adhere to the plastic overnight. Densities used for plating were 1500 cells per well in a total volume of 200 μl medium. After cell adhesion to the plates, medium was changed and drugs and/or solvents were added to a final volume of 200 μl. Following four days of incubation, medium was replaced by 200 μl fresh medium and cell density and viability was assessed using an MTT-based assay. To each well, 25 μl MTT solution was added and the cells were further incubated for 2 hours at 37° C. The medium was then carefully aspirated and the blue MTT-formazan product was solubilized by addition of 25 μl glycine buffer followed by 100 μl of DMSO. […] Within an experiment, the results for each experimental condition are the mean of 3 replicate wells. For initial screening purposes, compounds were tested at a single fixed concentration of 10^−6 M. For active compounds, the experiments were repeated to establish full concentration-response curves. For each experiment, controls (containing no drug) and a blank incubation (containing no cells or drugs) were run in parallel. The blank value was subtracted from all control and sample values. For each sample, the mean value for cell growth (in absorbance units) was expressed as a percentage of the mean value for cell growth of the control. […] Herein the effects of test compounds are expressed as pIC50 (the negative log value of the IC50-value).

[3] = Kinetic solubility in aqueous media (nephelometry); format: physicochemical; settings: aqueous buffer, kinetic from dmso stock; phosphate citrate buffer pH 7.4, turbidity of three dilution steps; read-out: Solubility Score
Method: Kinetic solubility in aqueous media measures the ability of a compound to stay in aqueous solution upon dilution (see example C.3).
DMSO-stock solutions are diluted with a single aqueous buffer solvent in 3 consecutive steps. For every dilution turbidity is measured with a nephelometer.
In the first dilution step, 10 μl of a concentrated stock-solution of the active compound, solubilized in DMSO (5 mM), was added to 100 μl phosphate citrate buffer pH 7.4 and mixed. In the second dilution step, an aliquot (20 μl) of the first dilution step was further dispensed in 100 μl phosphate citrate buffer pH 7.4 and mixed. Finally, in the third dilution step, a sample (20 μl) of the second dilution step was further diluted in 100 μl phosphate citrate buffer pH 7.4 and mixed. All dilutions were performed in 96-well plates. Immediately after the last dilution step the turbidity of the three consecutive dilution steps were measured with a nephelometer. Dilution was done in triplicate for each compound to exclude occasional errors. Based on the turbidity measurements a ranking is performed into 3 classes. Compounds with high solubility obtained a score of 3 and for this compounds the first dilution is clear. Compounds with medium solubility obtained a score of 2. For these compounds the first dilution is unclear and the second dilution is clear. […] The solubility of 3 compounds was measured.

| Structure (SMILES) | Enzyme activity pIC50 [1] | IC50 [2] | solubility [3] | melting point |
| --- | --- | --- | --- | --- |
| Cc1ccc(NC(=O)N2CCN(c3ccc(C(=O)NO)cc3)CC2)cc1 [Co. No. 1] | 6.754 | 4700 nM | < 75.8 µM |  |
| Cc1ccc(NC(=O)N2CCN(c3ccc(C(=O)NCCO)cc3)CC2)cc1 [Co. No. 2] | <5 | > 10000 nM |  |  |
| Cc1ccc(NC(=O)N2CCN(c3ccc(NC(=O)CS)cc3)CC2)cc1 [Co. No. 3] | 5.332 | > 10000 nM |  |  |
| Cc1cccc(C)c1NC(=O)N1CCN(c2ccc([N+](=O)[O-])cc2C(=O)NO)CC1 [compound 30] | >5 |  |  |  |

Other lines, results leading:

| Enzyme activity pIC50 [1] | IC50 [2] | solubility [3] | melting point | Structure (SMILES) |
| --- | --- | --- | --- | --- |
| 7.127 | 769 nM |  |  | O=C(NO)c1cnc(N2CCN(C(=O)N(c3ccccc3)c3ccccc3)CC2)nc1 [Co. No. 4] |
| 7.65 | 711 nM | 75.8 to 454 µM (≈ 33.8 to 203 µg/mL) | > 260 °C | O=C(NCC1CCN(c2ncc(C(=O)NO)cn2)CC1)Nc1ccc(-c2ccccc2)cc1 [Co. No. 5] |
| 7.728 | 277 nM | > 454 µM | > 260 °C | O=C(NO)c1cnc(N2CCN(C(=O)Nc3ccc(-c4ccccc4)cc3)CC2)nc1 [Co. No. 6] |
| 7.163 | 723 nM |  |  | CN(C(=O)N1CCN(c2ncc(C(=O)NO)cn2)CC1)c1ccccc1 [compound 48] |
